Columns and labels:
human GJ T cells = assay: TaqMan SNP assay of transfer of EPC100 mitochondria to human GJ T cells cultured with rapamycin; type: cell-based; conditions: for portion of donor mtDNA detected in T cells: after 7 days, EPC100 donor mitochondria
Experimental: Isolation and Cell Culture of Human T cells: Venous heparinized blood was taken according to the standard procedures from the median cubital vein. Human peripheral blood mononuclear cells (PBMC) were isolated from human peripheral blood using density-gradient centrifugation with 1.077 g/ml percoll (GE Healthcare Life Sciences, Buckinghamshire, England). Cells were cultured in TexMACS medium (Miltenyi Biotec) supplemented with 10% fetal bovine serum, 1% penicillin/streptomycin (Thermo Fisher Scientific incorporated), […] of IL-7, and […] of IL-15 on cell culture plates coated with anti-CD3 antibody and anti-CD28 antibody (Miltenyi Biotec). Cells were incubated at 37° C. in a humidified 5% CO2 incubator.
Mitochondrial Isolation and Transfer to Human T cells: The immortalized human uterine endometrial gland-derived mesenchymal cell line, EPC100 (Japanese Collection of Research Bioresources Cell Bank, JCRB1538) was used as an exemplary donor of exogenous mitochondria for mitochondrial transfer to human primary T cells by using the same protocol as that of murine protocol.
TaqMan Single Nucleotide Polymorphism (SNP) Assay: Based upon the differences in the mitochondrial HVR1 sequences of human GJ T cells and EPC100 cells, and the mitochondrial ND1 of B6 mouse and NZB mouse, the probes and primer set forth in Tables 1 and 2 were designed, which provide sensitivity and specificity in the TaqMan SNP assay. To determine mutation ratios, we designed wild-type and mutant allele-specific TaqMan probes for the TaqMan SNP assay. The extracted DNA (1 ng) was used for quantitative PCR with the TaqMan Universal PCR Master Mix kit (Thermo Fisher Scientific Incorporated) on a CFX connect real-time system (Bio-Rad Laboratories, Incorporated) under the following conditions: 40 cycles of PCR (95° ° C. for 15 see and 60° ° C. for 1 min) after initial denaturation (95° ° C. for 10 min). […] The mtDNA copy number was estimated from the content ratio of 12S rRNA on mtDNA and ACTB (or Actb) on nuclear DNA by delta cycle threshold-based relative quantification. […]

mouse NZB T cells = assay: TaqMan SNP assay of replacement of NZB T cell mtDNA with B6 MEF mtDNA after culture with rapamycin; type: cell-based; conditions: 40 μg B6 MEF mitochondria
Experimental: Isolation and Cell Culture of Primary Mouse T lymphocytes: All the animal experiments were performed according to the animal experiment guidelines issued by the Animal Care and Use Committee of our institution (M2019-536). For mouse T lymphocytes isolation, spleens were removed from mouse after anesthetized and sacrificed. Spleens were washed with PBS (FUJIFILM Wako Pure Chemical Corp.), then mashed and filtrated to extract splenocytes. Mouse T cells were highly purified from splenocytes by immunomagnetic negative selection using EasySep mouse T cell isolation kit (Veritas, Santa Clara, CA, USA) according to the manufacturer's recommendations. Isolated mouse T cells were cultured in Advanced RPMI1640 medium supplemented with 10% FBS, 1% penicillin/streptomycin, 20 mM L-glutamine (Thermo Fisher Scientific incorporated), […] recombinant human IL-2 (PeproTech, Rocky Hill, NJ, USA), which is activated with Dynabeads mouse T-activator CD3/CD28 (Thermo Fisher Scientific incorporated). Cells were incubated at 37 °C in a humidified 5% CO2 incubator.
Mitochondrial Isolation and Transfer to Mouse T cells: Mitochondria were isolated from B6 murine embryonic fibroblasts (MEF). […] The amounts of isolated mitochondria were expressed as protein concentration using a Bio-Rad protein assay kit (Bio-Rad Laboratories, incorporated, Richmond, CA, USA). […]

With `CO[C@H]1C[C@@H]2CC[C@@H](C)[C@@](O)(O2)C(=O)C(=O)N2CCCC[C@H]2C(=O)O[C@H]([C@H](C)C[C@@H]2CC[C@@H](O)[C@H](OC)C2)CC(=O)[C@H](C)/C=C(\C)[C@@H](O)[C@@H](OC)C(=O)[C@H](C)C[C@H](C)/C=C/C=C/C=C/1C` [rapamycin] the “portion of donor mtDNA detected in T cells” value (human GJ T cells; 50 nM rapamycin) was “less than 40%”, the “portion of donor mtDNA detected in T cells” value (human GJ T cells; 500 nM rapamycin) was “approximately 50%” and the “mtDNA content in T cells consisting of mtDNA from EPC100 cells” value (human GJ T cells; human GJ T cells contacted with EPC100 donor mitochondria in the presence of rapamycin (50 to 500 nM), no mtDNA depletion, FIG. 3B) was 40-50%. For the same molecule, the “donor mtDNA in the recipient T cells” value (mouse NZB T cells; centrifugation and two days of rapamycin treatment (100-1000 nM), FIG. 5A) was 45-80% and the “donor mtDNA in the recipient T cells” value (mouse NZB T cells; day 7, rapamycin 100-1000 nM, FIG. 5B) was 70-90%.
